Laboratory results taken from patent US8642807B2, “Crystallized diacetylenic indicator compounds and methods of preparing the compounds” (Temptime Corporation, priority 2007, dated 2014).

How the values were obtained:
[1] = Room temperature solubility of 4DOD in solvent systems, saturated solution dried and weighed (Example 2A); assay type: physicochemical; settings: about 25° C.; for Calculated solubility of 4DOD: stirred 16 hours
Experimental: To serve as indicator agent, a […] polymerizable diacetylenic monomer, namely 5,7-dodecadiyn-1,12 diol bis(n-octadecyl urethane), “4DOD” hereinafter, is synthesized in sufficient quantity for preparation of a master batch of ink, by the method described in Yee U.S. Pat. No. 4,215,208 at column 17, lines 47-65 and is stored in a freezer. A small quantity of 4DOD is taken from frozen storage and is tested at room temperature for solubility in various solvent systems employing the following procedure.
100 g of deionized water is weighed into a 200 mL glass beaker. 4DOD powder is added to the glass beaker until the solution is saturated allowing excess 4DOD to remain present as undissolved solid. 75 g of deionized water is weighed into another 200 mL glass beaker, and 25 g acetone is added. 4DOD is then added to the water-acetone solvent system in the glass beaker until the solution is saturated and an excess of 4DOD remains as undissolved solid. 75 g of deionized water is weighed into a third 200 mL glass beaker. 25 g ethanol is added to the water and then 4DOD is added to the water-ethanol mixture until the solution is saturated and an excess of 4DOD remains as undissolved solid. Each solution is stirred on a magnetic plate for 16 hours at a controlled room temperature of about 25° C.
After 16 hours of stirring, 7 g of each solution (soluble portion only, avoiding any undissolved solid material) is transferred to a separate aluminum foil pan. The aluminum foil pans are left to stand under a fume hood for 2 hours to allow any volatile solvent to evaporate, and are then dried in a vacuum oven for one 1 hour. Each aluminum foil pan is then weighed and the solubility of the 4DOD in each solvent system is calculated in terms of the percent of solute based on the weight of the solvent system.

[2] = Comparative color-change reactivities of pressed pellets, cyan optical density after ageing at 37, 45 or 70° C. (Example 4); assay type: physicochemical; settings: for color change kinetics / reactivity relative to raw product: 37° C., FIG. 12; for activation energy: color-change (solid-state polymerization) reaction of pellets
Experimental: Sample pellets are prepared from crystalline diacetylenic monomer powder using an E-Z Press 12-Ton Hydraulic Press and KBr Pellet Kit with 13 mm die set, as supplied by International Crystal Laboratories (Garfield, N.J.). Using about 300 mg powder, a pressure of 5 to 8 tons is applied for 2-3 minutes. Samples of 2,4-hexadiyn-1,6-bis(ethylurea) precipitated from dimethyl sulfoxide, methanol and a 4:1 by weight ethanol/water mixture are prepared. Pellets of raw 2,4-hexadiyn-1,6-bis(ethylurea) crystals (“KE raw”), precipitated from a solution in hot glacial acetic acid, using methanol as a precipitant, shortly after the 2,4-hexadiyn-1,6-bis(ethylurea) was synthesized, are included as controls.
While being handled by the edges, an individual pellet is placed in a transparent heat-seal bag, about 50 mm by 115 mm, vacuum sealed and placed into a heat-sealable foil pouch. The foil pouch is vacuum-sealed using a Fuji Impulse tabletop vacuum heat sealer. The sealed foil pouch containing the pellets is stored in a freezer at −30° C., or other suitable temperature, until ready for testing.
The heat-sealed foil pouch samples containing the pellets are placed in a water bath, for example a Huber circulating water bath, set to appropriate temperatures for example 37° C., 45° C. or 70° C., and aged for suitable measured time periods such as a few days at 37° C. or a few hours at 70° C. where the reaction proceeds more rapidly. The samples are weighted to keep them immersed in the water during the test. Timing is started immediately after each pouch is placed into the water bath. The pouch is removed at the end of the designated test period and its optical density is measured.
To measure optical density the pouch is briefly immersed in a second water bath set at 20° C. to quench the sample and prevent further color change during measurement. The foil pouch is cut open leaving the pellet inside the transparent heat-sealed bag. The reaction kinetics of the diacetylenic monomer are determined by measuring the cyan optical density (O.D.) of the aged pellets using an X-Rite 404 color reflection densitometer. The optical density can be measured on an arbitrary scale and used for comparative indications of color change reactivity.
In order to compensate for the thickness of the pellets, which are about 2 mm thick, when using the densitometer, the densitometer can be raised on to an elevated platform of corresponding height.

For “5,7-dodecadiyn-1,12-bis-n-octadecyl urethane [4DOD]”, the “Calculated solubility of 4DOD” value ([1]; 75% Water 25% Acetone) was 10% wt %, the “Calculated solubility of 4DOD” value ([1]; 100% Acetone) was 32% wt % and the “Calculated solubility of 4DOD” value ([1]; 100% Ethanol) was 37% wt %. The “Calculated solubility of 4DOD” value ([1]; Water) was 0.03% wt %, the “solubility in the individual organic solvent alone, in words” value ([1]; ethanol or acetone alone) was “remarkably high solubility” and the “solubility in water, in words” value ([1]; water) was “minimal solubility”.

With `CCNC(=O)NCC#CC#CCNC(=O)NCC` [2,4-hexadiyn-1,6-bis(ethylurea) crystallized from pyridine] the “color change kinetics / reactivity relative to raw product” value [2] was “faster color change kinetics than does the raw product” and the activation energy [2] was “about 19 kcal/mol”.

In the case of `CCNC(=O)NCC#CC#CCNC(=O)NCC` [2,4-hexadiyn-1,6-bis(ethylurea)], the “color change kinetics / reactivity relative to raw product” value [2] is reported as “modestly faster reactivity than raw 2,4-hexadiyn-1,6-bis(ethylurea)” and the reactivity profile ([2]; 45° C., FIG. 13) is reported as “close to that of the pyridine product”.

`CCNC(=O)NCC#CC#CCNC(=O)NCC` [raw product, 2,4-hexadiyn-1,6-bis(ethylurea), reference compound] gave an activation energy [2] of 23 kcal/mol.
